From patent publication US11485742B2, “2-azaspiro[3.4]octane derivatives as M4 agonists” (NOVARTIS AG, priority 2019, dated 2022)

Target: T1, human cloned CHRM5 receptor (Homo sapiens, UniProt P08912)
T1 construct: expressed in transfected cells; host or cells: CHO (M5_CHO)
T1 sequence (P08912 1-532): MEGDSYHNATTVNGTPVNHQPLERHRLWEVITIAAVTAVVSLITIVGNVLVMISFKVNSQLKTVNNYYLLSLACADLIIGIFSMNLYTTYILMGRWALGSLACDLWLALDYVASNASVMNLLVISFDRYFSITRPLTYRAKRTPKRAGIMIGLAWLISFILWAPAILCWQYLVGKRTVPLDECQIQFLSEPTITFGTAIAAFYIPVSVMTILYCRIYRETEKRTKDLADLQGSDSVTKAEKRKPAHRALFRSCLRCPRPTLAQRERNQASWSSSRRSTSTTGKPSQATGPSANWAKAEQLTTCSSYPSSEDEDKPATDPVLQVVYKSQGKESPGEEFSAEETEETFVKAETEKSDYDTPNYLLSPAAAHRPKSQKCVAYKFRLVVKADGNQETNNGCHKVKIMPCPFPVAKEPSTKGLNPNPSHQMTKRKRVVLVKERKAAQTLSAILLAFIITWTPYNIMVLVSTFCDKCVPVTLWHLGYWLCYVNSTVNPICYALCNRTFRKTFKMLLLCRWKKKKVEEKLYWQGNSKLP
Assay: CHRM5 Ca++ Flux Assay (M5_CHO cells, agonist mode)
Assay type: cell-based
Conditions: for Emax: Percent Activity (PA) measured to EC100 of Carbachol, read-out: M5 FDSS PA %; for EC50: agonist mode, geometric mean if tested more than once, read-out: M5 FDSS EC50
Method in brief: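 Agonist-mode calcium mobilisation: compounds, 11 concentrations in triplicate, applied to stable M3_CHO or M5_CHO cells loaded with Ca++ dye, fluorescence followed 3 min. Efficacy expressed against carbachol EC100; EC curves by four-parameter nonlinear regression, geometric mean across independent runs.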

SMILES	Emax [%]	EC50 [µM]
Fc1ccc(OC2CC3(COC3)C2)c(C2CCN([C@@H]3COC4(C3)CN(c3nnco3)C4)CC2)c1 [Example 2L, (S)-7-(4-(2-((2-oxaspiro[3.3]heptan-6-yl)oxy)-5-fluorophenyl)piperidin-1-yl)-2-(1,3,4-oxadiazol-2-yl)-5-oxa-2-azaspiro[3.4]octane]	0	> 25
CCC1(COc2ccc(F)cc2C2CCN([C@@H]3COC4(C3)CN(c3nnco3)C4)CC2)COC1 [Example 2P, (S)-7-(4-(2-((3-ethyloxetan-3-yl)methoxy)-5-fluorophenyl)piperidin-1-yl)-2-(1,3,4-oxadiazol-2-yl)-5-oxa-2-azaspiro[3.4]octane]	0	> 25
CCc1nnc(COc2ccc(F)cc2C2CCN([C@@H]3COC4(C3)CN(c3nnco3)C4)CC2)s1 [Example 2T, (S)-7-(4-(2-((5-ethyl-1,3,4-thiadiazol-2-yl)methoxy)-5-fluorophenyl)piperidin-1-yl)-2-(1,3,4-oxadiazol-2-yl)-5-oxa-2-azaspiro[3.4]octane]	0	0.73
CC(C)(O)CCOc1cc(F)ccc1C1CCN([C@@H]2COC3(C2)CN(c2nncs2)C3)CC1 [Example 5V, (S)-4-(2-(1-(2-(1,3,4-thiadiazol-2-yl)-5-oxa-2-azaspiro[3.4]octan-7-yl)piperidin-4-yl)-5-fluorophenoxy)-2-methylbutan-2-ol]	0	> 25
Fc1ccc(OC2CCOCC2)c(C2CCN([C@@H]3COC4(C3)CN(c3ncon3)C4)CC2)c1 [Example 6A, (S)-7-(4-(5-fluoro-2-((tetrahydro-2H-pyran-4-yl)oxy)phenyl)piperidin-1-yl)-2-(1,2,4-oxadiazol-3-yl)-5-oxa-2-azaspiro[3.4]octane]	0	> 25
Fc1ccc(OC2CC3(COC3)C2)c(C2CCN([C@@H]3COC4(C3)CN(c3ncon3)C4)CC2)c1 [Example 6C, (S)-7-(4-(2-((2-oxaspiro[3.3]heptan-6-yl)oxy)-5-fluorophenyl)piperidin-1-yl)-2-(1,2,4-oxadiazol-3-yl)-5-oxa-2-azaspiro[3.4]octane]	0	> 25
Fc1ccc(OC2CC3(COC3)C2)c(C2CCN([C@H]3COC4(C3)CN(c3nnco3)C4)CC2)c1 [Example 7A, (R)-7-(4-(2-((2-oxaspiro[3.3]heptan-6-yl)oxy)-5-fluorophenyl)piperidin-1-yl)-2-(1,3,4-oxadiazol-2-yl)-5-oxa-2-azaspiro[3.4]octane]	0	> 25

More lines, now with the values ahead:

Emax [%]	EC50 [µM]	SMILES
0	> 25	Fc1ccc(OC[C@H]2CCCO2)c(C2CCN([C@@H]3COC4(C3)CN(c3nnco3)C4)CC2)c1 [Example 2M, (S)-7-(4-(5-fluoro-2-(((R)-tetrahydrofuran-2-yl)methoxy)phenyl)piperidin-1-yl)-2-(1,3,4-oxadiazol-2-yl)-5-oxa-2-azaspiro[3.4]octane]
0	> 25	Fc1ccc(OCC2CC3(COC3)C2)c(C2CCN([C@@H]3COC4(C3)CN(c3nnco3)C4)CC2)c1 [Example 2S, (S)-7-(4-(2-((2-oxaspiro[3.3]heptan-6-yl)methoxy)-5-fluorophenyl)piperidin-1-yl)-2-(1,3,4-oxadiazol-2-yl)-5-oxa-2-azaspiro[3.4]octane]
0	> 25	OC1(COc2ccc(F)cc2C2CCN([C@@H]3COC4(C3)CN(c3nnco3)C4)CC2)COC1 [Example 2U, (S)-3-((2-(1-(2-(1,3,4-oxadiazol-2-yl)-5-oxa-2-azaspiro[3.4]octan-7-yl)piperidin-4-yl)-4-fluorophenoxy)methyl)oxetan-3-ol]
0	> 25	Fc1ccc(OC2CC3(COC3)C2)c(C2CCN([C@@H]3COC4(C3)CN(c3nncs3)C4)CC2)c1 [Example 5W, (S)-7-(4-(2-((2-oxaspiro[3.3]heptan-6-yl)oxy)-5-fluorophenyl)piperidin-1-yl)-2-(1,3,4-thiadiazol-2-yl)-5-oxa-2-azaspiro[3.4]octane]
0	> 25	Fc1ccc(OC[C@H]2CCOC2)c(C2CCN([C@@H]3COC4(C3)CN(c3nncs3)C4)CC2)c1 [Example 5X, (S)-7-(4-(5-fluoro-2-(((S)-tetrahydrofuran-3-yl)methoxy)phenyl)piperidin-1-yl)-2-(1,3,4-thiadiazol-2-yl)-5-oxa-2-azaspiro[3.4]octane]
0	> 25	CC(C)(O)COc1ccccc1C1CCN([C@@H]2COC3(C2)CN(c2ncns2)C3)CC1 [Example 5Y, (S)-1-(2-(1-(2-(1,2,4-thiadiazol-5-yl)-5-oxa-2-azaspiro[3.4]octan-7-yl)piperidin-4-yl)phenoxy)-2-methylpropan-2-ol]
0	> 25	Fc1ccc(OC2COC2)c(C2CCN([C@@H]3COC4(C3)CN(c3ncon3)C4)CC2)c1 [Example 6B, (S)-7-(4-(5-fluoro-2-(oxetan-3-yloxy)phenyl)piperidin-1-yl)-2-(1,2,4-oxadiazol-3-yl)-5-oxa-2-azaspiro[3.4]octane]
